Data taken from article PMC3357308 (Diabetes, 2012).

Legend:
11βHSD1 = conditions: in vivo, d4-cortisol tracer; cited from earlier work
[1] = system: 11β-reductase and 11β-dehydrogenase activities; assay: Cortisol/cortisone interconversion in subcutaneous adipose and skeletal muscle; type: in vivo, human; conditions: arteriovenous difference adjusted for blood flow, n = 6; for Ra (net Ra for cortisone), skeletal muscle release: forearm
[2] = In vivo pharmacokinetics of d2-cortisone after intravenous bolus; set-up: species or system human; conditions: iv bolus 141 μg
human 11βHSD1 [3] = biological target: T1, human 11βHSD1 (Homo sapiens, UniProt P28845); assay: Competition with [3H]2-cortisone in HEK293/h11βHSD1 cells; type: cell-based; conditions: [3H]2-cortisone 5 nmol/L, competitor 0–4,955 nmol/L, 6–24 h
human 11βHSD1 [4] = biological target: T1, human 11βHSD1; type: cell-based; conditions: HEK293/h11βHSD1 cells, substrate 2 μmol/L, 1–24 h, n = 6
11β-dehydrogenase [5] = conditions: extrapolated from generation of d3-cortisone, non–steady-state, adjusted for substrate concentration and volume of distribution; cited from earlier work
11β-dehydrogenase [6] = assay: Primed 3-h d2-cortisone infusion before and after licorice; conditions: without licorice, whole body, steady state, n = 3
[7] = system: 11β-reductase and 11β-dehydrogenase activities; assay: Cortisol/cortisone interconversion in the splanchnic circulation; type: in vivo, human; conditions: adjusted for hepatic blood flow, n = 4

T1 sequence (P28845 whole entry): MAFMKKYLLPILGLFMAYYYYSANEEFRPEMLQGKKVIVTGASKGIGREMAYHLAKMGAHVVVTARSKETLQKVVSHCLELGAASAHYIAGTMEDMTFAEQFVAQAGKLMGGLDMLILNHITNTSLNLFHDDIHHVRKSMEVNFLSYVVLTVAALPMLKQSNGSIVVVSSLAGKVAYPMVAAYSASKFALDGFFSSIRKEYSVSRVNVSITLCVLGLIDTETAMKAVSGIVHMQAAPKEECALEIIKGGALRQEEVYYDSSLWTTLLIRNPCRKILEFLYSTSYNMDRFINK

Row | SMILES | cortisol released by subcutaneous adipose 11βHSD1 (11βHSD1) [pmol/100 g tissue/min] | Ra (net Ra for cortisone), skeletal muscle release [1] [pmol/100 mL/min] | time tracer could be detected after injection ([2]; blood) [h] | area under the curve ([2]; n = 3) [nmol/L per min] | Vmax for formation of [3H]2-cortisol in the presence of the steroid (human 11βHSD1 [3]) [pmol/10^5 cells/min] | production of d2-cortisol or cortisol from the substrate (human 11βHSD1 [4]) [pmol/10^5 cells/min] | cortisone production rate (11β-dehydrogenase [5]) [nmol/min] | Net Ra of cortisone (11β-dehydrogenase [6]) [nmol/min] | Ra (net Ra for cortisone), subcutaneous adipose release [1] [pmol/100 g/min] | Ra (net Ra for cortisone), splanchnic release [7] [nmol/min]
1 | C[C@]12CCC(=O)C=C1CC[C@@H]1[C@@H]2[C@@H](O)C[C@@]2(C)[C@H]1CC[C@]2(O)C(=O)CO [cortisol] | ~15 | 19.7 ± 4.1 |  |  |  |  |  |  |  | 
2 | [2H]C1C(=O)C=C2CC[C@H]3[C@@H]4CC[C@](O)(C(=O)CO)[C@@]4(C)CC(=O)[C@@H]3[C@@]2(C)C1[2H] (some centres unmarked) [d2-cortisone, 1,2-[^2H]2-Cortisone] |  |  | 1.5 | 494 | 0.83 ± 0.34 | 0.17 ± 0.05 |  |  |  | 
3 | [2H]C1([2H])[C@H](O)[C@@]2([2H])[C@@H](CCC3=CC(=O)CC[C@@]32C)[C@@H]2CC[C@](O)(C(=O)CO)[C@]21C [d3-cortisol] |  | 5.9 ± 1.8 |  |  |  |  |  |  |  | 
4 | C[C@]12CCC(=O)C=C1CC[C@@H]1[C@@H]2C(=O)C[C@@]2(C)[C@H]1CC[C@]2(O)C(=O)CO [cortisone] |  | 15.2 ± 5.8 |  |  | 0.73 ± 0.26 | 0.41 ± 0.15 | 24 | 36 | 38.7 ± 5.8 | 19.5 ± 2.8
